Test results taken from ChEMBL document CHEMBL1201862, “PubChem BioAssay data set” (2004).
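Grown in 96-well plates, cells were treated for 48 hours with each compound at five concentrations. Insufficient inhibition: endpoint recorded as highest concentration tested. GI50 is the concentration that inhibits growth by half.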 Active and inactive are the calls of the source. No stated cut-off is given here; in the data, active = GI50 up to about 1.1 µM and inactive = higher.

How the values were obtained:
Assay in all cases: NCI tumour cell line growth inhibition, 48 h
[1] = test system: 786-0
[2] = test system: A498
[3] = test system: A549
[4] = test system: ACHN
[5] = test system: BT-549
[6] = test system: CAKI-1
[7] = test system: CCRF-CEM
[8] = test system: COLO 205
[9] = test system: DU-145
[10] = test system: EKVX
[11] = test system: HCC 2998
[12] = test system: HCT-116
[13] = test system: HCT-15
[14] = test system: HL-60
[15] = test system: HOP-62
[16] = test system: HOP-92
[17] = test system: HT-29
[18] = test system: Hs-578T
[19] = test system: IGROV-1
[20] = test system: K562
[21] = test system: KM12
[22] = test system: LOX IMVI
[23] = test system: M14
[24] = test system: MCF7
[25] = test system: MDA-MB-231
[26] = test system: MDA-MB-435
[27] = test system: MDA-N
[28] = test system: MOLT-4
[29] = test system: NCI-H23
[30] = test system: NCI-H460
[31] = test system: NCI-H522
[32] = test system: NCI/ADR-RES
[33] = test system: OVCAR-3
[34] = test system: OVCAR-4
[35] = test system: OVCAR-5
[36] = test system: OVCAR-8
[37] = test system: PC-3
[38] = test system: RXF 393
[39] = test system: SF-268
[40] = test system: SF-295
[41] = test system: SF-539
[42] = test system: SK-MEL-28
[43] = test system: SK-MEL-2
[44] = test system: SK-MEL-5
[45] = test system: SN12C
[46] = test system: SNB-19
[47] = test system: SR
[48] = test system: SW-620
[49] = test system: T47D
[50] = test system: TK-10
[51] = test system: U-251
[52] = test system: UACC-257
[53] = test system: UACC-62
[54] = test system: UO-31
[55] = test system: Malme-3M
[56] = test system: NCI-H226
[57] = test system: RPMI-8226
[58] = test system: SK-OV-3
[59] = test system: SNB-75

With CC(C)(C)c1cc2c(O)c(c1)C(c1ccccc1)c1cc(C(C)(C)C)cc(c1O)Cc1cc(C(C)(C)C)cc(c1O)C(c1ccccc1)c1cc(C(C)(C)C)cc(c1O)C2 (stereo not given) the GI50 [1] was > 100 µM (inactive), the GI50 [2] was > 100 µM (inactive) and the GI50 [3] was > 100 µM (inactive). For the same compound, the GI50 [4] was > 100 µM (inactive), the GI50 [5] was > 100 µM (inactive) and the GI50 [6] was > 100 µM (inactive). The GI50 [7] was 44.9 µM (inactive), the GI50 [8] was > 100 µM (inactive) and the GI50 [9] was > 100 µM (inactive). For the same compound, the GI50 [10] was > 100 µM (inactive), the GI50 [11] was > 100 µM (inactive) and the GI50 [12] was > 100 µM (inactive). The GI50 [13] was > 100 µM, the GI50 [14] was 28.7 µM (inactive) and the GI50 [15] was > 100 µM (inactive). The GI50 [16] was > 100 µM (inactive), the GI50 [17] was > 100 µM (inactive) and the GI50 [18] was > 100 µM (inactive). The GI50 [19] was > 100 µM (inactive), the GI50 [20] was > 100 µM (inactive) and the GI50 [21] was > 100 µM (inactive). For the same compound, the GI50 [22] was > 100 µM (inactive), the GI50 [23] was > 100 µM (inactive) and the GI50 [24] was > 100 µM (inactive). For the same compound, the GI50 [25] was > 100 µM (inactive), the GI50 [26] was > 100 µM (inactive) and the GI50 [27] was > 100 µM (inactive). The GI50 [28] was > 100 µM (inactive), the GI50 [29] was > 100 µM (inactive) and the GI50 [30] was > 100 µM (inactive). The GI50 [31] was > 100 µM (inactive), the GI50 [32] was > 100 µM (inactive) and the GI50 [33] was > 100 µM (inactive). The GI50 [34] was > 100 µM (inactive), the GI50 [35] was > 100 µM (inactive) and the GI50 [36] was > 100 µM (inactive). For the same compound, the GI50 [37] was > 100 µM (inactive), the GI50 [38] was > 100 µM (inactive) and the GI50 [39] was > 100 µM (inactive). For the same compound, the GI50 [40] was > 100 µM (inactive), the GI50 [41] was > 100 µM (inactive) and the GI50 [42] was > 100 µM (inactive). The GI50 [43] was > 100 µM (inactive), the GI50 [44] was > 100 µM (inactive) and the GI50 [45] was > 100 µM (inactive). For the same compound, the GI50 [46] was > 100 µM (inactive), the GI50 [47] was 62.7 µM (inactive) and the GI50 [48] was > 100 µM (inactive). The GI50 [49] was > 100 µM (inactive), the GI50 [50] was > 100 µM (inactive) and the GI50 [51] was > 100 µM (inactive). The GI50 [52] was > 100 µM (inactive), the GI50 [53] was > 100 µM (inactive) and the GI50 [54] was > 100 µM (inactive).
With Cc1n[nH]c(=O)n1C1CC1 the GI50 [1] was > 100 µM (inactive), the GI50 [3] was > 100 µM (inactive) and the GI50 [4] was > 100 µM (inactive). The GI50 [5] was 0.0111 µM (active), the GI50 [6] was > 100 µM (inactive) and the GI50 [7] was > 100 µM (inactive). For the same compound, the GI50 [8] was > 100 µM (inactive), the GI50 [9] was > 100 µM (inactive) and the GI50 [10] was > 100 µM (inactive). The GI50 [11] was > 100 µM (inactive), the GI50 [12] was > 100 µM (inactive) and the GI50 [13] was > 100 µM. For the same compound, the GI50 [14] was > 100 µM (inactive), the GI50 [15] was > 100 µM (inactive) and the GI50 [16] was > 100 µM (inactive). For the same compound, the GI50 [17] was > 100 µM (inactive), the GI50 [18] was > 100 µM (inactive) and the GI50 [19] was > 100 µM (inactive). The GI50 [20] was > 100 µM (inactive), the GI50 [21] was > 100 µM (inactive) and the GI50 [22] was > 100 µM (inactive). For the same compound, the GI50 [23] was > 100 µM (inactive), the GI50 [24] was > 100 µM (inactive) and the GI50 [25] was > 100 µM (inactive). The GI50 [26] was > 100 µM (inactive), the GI50 [27] was > 100 µM (inactive) and the GI50 [28] was > 100 µM (inactive). For the same compound, the GI50 [55] was 64.1 µM (inactive), the GI50 [56] was > 100 µM (inactive) and the GI50 [29] was > 100 µM (inactive). For the same compound, the GI50 [30] was > 100 µM (inactive), the GI50 [31] was > 100 µM (inactive) and the GI50 [32] was > 100 µM (inactive). For the same compound, the GI50 [33] was > 100 µM (inactive), the GI50 [34] was > 100 µM (inactive) and the GI50 [35] was > 100 µM (inactive). The GI50 [36] was > 100 µM (inactive), the GI50 [37] was > 100 µM (inactive) and the GI50 [57] was > 100 µM (inactive). The GI50 [38] was > 100 µM (inactive), the GI50 [39] was > 100 µM (inactive) and the GI50 [40] was > 100 µM (inactive). The GI50 [41] was > 100 µM (inactive), the GI50 [42] was > 100 µM (inactive) and the GI50 [44] was > 100 µM (inactive). For the same compound, the GI50 [58] was > 100 µM (inactive), the GI50 [45] was > 100 µM (inactive) and the GI50 [46] was > 100 µM (inactive). For the same compound, the GI50 [59] was 42.7 µM (inactive), the GI50 [47] was > 100 µM (inactive) and the GI50 [48] was > 100 µM (inactive). The GI50 [49] was > 100 µM (inactive), the GI50 [51] was > 100 µM (inactive) and the GI50 [52] was > 100 µM (inactive). The GI50 [53] was > 100 µM (inactive) and the GI50 [54] was > 100 µM (inactive).
